Data: US20090075925A1, “Methods and Compositions Related to APOBEC-1 Expression” (priority 2006, published 2009)
Read-outs that look alike come from different tables or passages of the source.

How the values were obtained:
apoB mRNA editing = tested on: apoB mRNA editing
Method: Protein phosphatase inhibitor studies. […] The compounds' effects on apoB mRNA editing were evaluated by RT-PCR and poisoned-primer extension analysis (Sowden et al. Rna 2:274-88 (1996)). The effect of 470 nM cantharidin on ACF subcellular distribution was investigated by treating primary hepatocyte cultures for 6 hours followed by nuclear and cytoplasmic extract preparation.
It was reasoned that if phosphorylation of ACF regulated editing activity, treatment of rat primary hepatocytes with phosphatase inhibitors might stimulate apoB mRNA editing activity. […] The experiments (n=4-6) were done over a number of months and therefore represent primary hepatocytes from several rats.
Editing activity was quantified from primary hepatocytes incubated with 10-100-times the EC50 of the various […] (Calbiochem).

PKC [1] = details: cited from earlier work
[2] = 10 mg/kg per day IP, 26 day period; cited from earlier work
ACF64 = experiment: ACF phosphorylation in 32P-labeled McArdle cells; assay type: cell-based, rat; details: 6 hour
Method: Numerous kinase inhibitors were evaluated but only those acting on Protein Kinase C affected editing activity. […] Cell extracts were immunoprecipitated with the ACF C-terminal specific antibody and analyzed by PAGE and autoradiography (FIG. 23). […] However, at and above the IC50 of PKC, phosphorylation of ACF64 was inhibited by 90% and 100%.

ACF = ACF phosphorylation in 32P-labeled rat primary hepatocytes (ACF immunoprecipitation, autoradiography); assay type: cell-based; details: 32Pi 500 μCi/ml, 6 hours
Method: In vivo phosphorylation of ACF. In vivo ^32P labeling was performed by intraperitoneal injection of rats with 12.5 mCi of orthophosphoric acid (10 mCi/ml ^32PO4; NEN, Boston, Mass.) buffered with 50 mM HEPES, pH 7.0 and 150 mM NaCl. After 4 hours, rats were sacrificed and hepatic cytoplasmic and nuclear extracts prepared. Primary hepatocyte cultures in 60 mm dishes were incubated in phosphate-free Minimum Essential Eagle Media (Sigma) containing 0.1 nM porcine insulin for 6 hours and subsequently in fresh media containing 10 nM insulin (equivalent to that seen in post-prandial serum) or 0.45% to 0.9% ethanol (AAPER Alcohol and Chemical Co., Shelbyville, Ky.) (Van Mater et al. (1998), Yang et al. (2000)) plus 2.0 mCi orthophosphoric acid. Cultures were labeled for 4 hours prior to extract preparation.
To evaluate the effect of phosphatase inhibition on ACF phosphorylation, cultures were pre-incubated for 2 hours with 470 nM cantharadin in phosphate-free Waymouth's media and subsequently supplemented with 0.5 mCi ^32pO4 and incubated for an additional 4 hours. Cultures were harvested and subcellular extracts prepared.
Immunological techniques. […] For immunoprecipitation analyses all radiolabeled extracts were adjusted to 5 mM MgCl2 and digested with 100 units of DNase I (Promega), RNase T1 (Roche, Ind.), and RNase A (Sigma) for 1 hour on ice to remove radiolabeled nucleic acid. Where applicable, extracts were incubated overnight with ACF CT antibody at 4° C. and subsequently reacted with Protein A-agarose (Oncogene Research Products, Boston, Mass.) pre-washed with 1×TBS/10 mM NaF. The immuno-absorbed material was washed 3 times with 1×TBS/10 mM NaF, 3 times with 1×TBS/1 M NaCl (Yang et al. (1997)) and lastly 3 times with 1×TBS. Immuno-absorbed material to be treated with alkaline phosphatase was washed with 50 mM Tris, pH 8.4, 1 mM MgCl2, 0.1 mM ZnCl2, 25% glycerol and then incubated with 5 U CIAP for 1 hour at 30° C. and then washed 6 times with 1×TBS. ACF-antibody complexes were eluted with 3 M sodium thiocyanate, acetone precipitated and analyzed by 10.5% SDS-PAGE followed by autoradiography and/or western blotting with ACF NT antibody. For ACF immunoprecipitation from gradient fractions an equal volume of pooled gradient fractions from sedimentation zones of interest were reacted with sub-saturating amounts of ACF CT antibody to ensure that the recovery of phospho-ACF was not simply a reflection of ACF abundance in each zone.
To evaluate this, cytoplasmic and nuclear extracts from radiolabeled primary hepatocyte cultures were sedimented through 10%-50% glycerol gradients. […] The ACF immunoprecipitates were resolved by SDS-PAGE, transferred to nitrocellulose, autoradiographed and subjected to phosphorimager scanning to detect and quantify radiolabeled proteins prior to immunoblotting with the ACF NT antibody.

PKA [3] = details: cited from earlier work
PKC [4] = details: cited from earlier work; remark: listed apart in the source
PKA [5] = details: cited from earlier work; remark: listed apart in the source

In the case of `CC(C)[C@H]1C(=O)N[C@H](CO)Cc2c[nH]c3cccc(c23)N1C` [Indolactam V], the “apoB mRNA editing, Mean” value (apoB mRNA editing; 12 μM) is reported as 92.47%, the “editing activity compared to solvent treated controls (from 65%)” value (apoB mRNA editing; 12 μM, SEM 4.8, n=2) is reported as 92% and the “apoB mRNA editing, Mean” value (apoB mRNA editing; 120 μM) is reported as 91.57%. The “effect on apoB mRNA editing” value (apoB mRNA editing; concentration not given) was “stimulated editing” and the EC50 (PKC [1]) was 0.2 µM.

In the case of “leptin: protein product of the ob gene, 16 kDa circulating hormone”, the “decrease in weight at the conclusion of the study” value [2] is listed as about 20%.

With `NCCNS(=O)(=O)c1cccc2c(Cl)cccc12` [A3] the “inhibition of ACF64 phosphorylation” value (ACF64; above the IC50 of PKC (120 μM)) was 100%, the “decrease of ACF phosphorylation relative to untreated cells” value (ACF64; at the IC50 of PKA (4 μM)) was 20% and the “inhibition of ACF64 phosphorylation” value (ACF64; at the IC50 of PKC (40 μM)) was 90%. The “concentration at which ACF phosphorylation was inhibited” value (ACF) was at least 40 µM, the “effect on editing in hepatocytes” value (apoB mRNA editing) was “stimulated” and the IC50 (PKA [3]) was 4 µM. For the same compound, the IC50 (PKC [4]) was 47 µM.

With `Nc1ncnc2c1nc(Sc1ccc(Cl)cc1)n2[C@@H]1O[C@@H]2COP(=O)(O)O[C@H]2[C@H]1O` [8-cpt cAMP] the “apoB mRNA editing, Mean” value (apoB mRNA editing; 2 μM) was 61.2%, the “apoB mRNA editing, Mean” value (apoB mRNA editing; 20 μM) was 59.3% and the “apoB mRNA editing, Mean” value (apoB mRNA editing; 200 μM) was 59.6%. For the same compound, the EC50 (PKA [5]) was 2 µM.
